One block for each compound: values may come before it.
Legend:
[1] = biological target: Muscarinic acetylcholine receptor M3 (Homo sapiens, UniProt P20309); assay: Antagonist activity at human muscarinic M3 receptor expressed in PathHunter U2OS CHRM3 beta-arrestin cells preincubated for 30 mins followed by agonist addition at 6 times EC80 and measured after 90 to 180 mins by PathHunter assay; format: functional, cell-based
[2] = biological target: Voltage-gated inwardly rectifying potassium channel KCNH2 (Homo sapiens, UniProt Q12809); assay: Inhibition of hERG in HEK293 cells measured after 5 mins by patch-clamp assay
[3] = Half life in male Sprague-Dawley rat at 4 mg/kg, iv administered via tail vein and measured upto 24 hrs by LC-MS/MS analysis; format: ADME, organism-based; details: in vivo
[4] = AUC (0 to t) in male Sprague-Dawley rat at 4 mg/kg, iv administered via tail vein and measured upto 24 hrs by LC-MS/MS analysis; format: ADME, organism-based; details: in vivo
[5] = AUC (0 to infinity) in male Sprague-Dawley rat at 4 mg/kg, iv administered via tail vein and measured upto 24 hrs by LC-MS/MS analysis; format: ADME, organism-based; details: in vivo
[6] = Volume of distribution in male Sprague-Dawley rat at 4 mg/kg, iv administered via tail vein and measured upto 24 hrs by LC-MS/MS analysis; format: ADME, organism-based; details: in vivo
[7] = Clearance in male Sprague-Dawley rat at 4 mg/kg, iv administered via tail vein and measured upto 24 hrs by LC-MS/MS analysis; format: ADME, organism-based; details: in vivo
[8] = MRT (0 to infinity) in male Sprague-Dawley rat at 4 mg/kg, iv administered via tail vein and measured upto 24 hrs by LC-MS/MS analysis; format: ADME, organism-based; details: in vivo
[9] = Half life in male Sprague-Dawley rat at 25 mg/kg, po measured upto 24 hrs by LC-MS/MS analysis; format: ADME, organism-based; details: in vivo
[10] = Tmax in male Sprague-Dawley rat at 25 mg/kg, po measured upto 24 hrs by LC-MS/MS analysis; format: ADME, organism-based; details: in vivo
[11] = Cmax in male Sprague-Dawley rat at 25 mg/kg, po measured upto 24 hrs by LC-MS/MS analysis; format: ADME, organism-based; details: in vivo
[12] = AUC (0 to t) in male Sprague-Dawley rat at 25 mg/kg, po measured upto 24 hrs by LC-MS/MS analysis; format: ADME, organism-based; details: in vivo
[13] = AUC (0 to infinity) in male Sprague-Dawley rat at 25 mg/kg, po measured upto 24 hrs by LC-MS/MS analysis; format: ADME, organism-based; details: in vivo
[14] = Volume of distribution in male Sprague-Dawley rat at 25 mg/kg, po measured upto 24 hrs by LC-MS/MS analysis; format: ADME, organism-based; details: in vivo
[15] = Clearance in male Sprague-Dawley rat at 25 mg/kg, po measured upto 24 hrs by LC-MS/MS analysis; format: ADME, organism-based; details: in vivo
[16] = MRT (0 to infinity) in male Sprague-Dawley rat at 25 mg/kg, po measured upto 24 hrs by LC-MS/MS analysis; format: ADME, organism-based; details: in vivo
[17] = Oral bioavailability in male Sprague-Dawley rat at 25 mg/kg measured upto 24 hrs by LC-MS/MS analysis; format: ADME, organism-based; details: in vivo
[18] = Apparent permeability across apical to basolateral side in human Caco-2 cells at 5 uM measured at 60 mins; format: ADME, cell-based
[19] = Apparent permeability across basolateral to apical side in human Caco-2 cells at 5 uM measured at 60 mins; format: ADME, cell-based
[20] = Plasma protein binding in human assessed as binding rate at 250 ng/ml prewarmed for 30 mins by LC-MS/MS analysis; format: ADME, cell-free; details: read-out: PPB (converted)
[21] = Plasma protein binding in human assessed as binding rate at 500 ng/ml prewarmed for 30 mins by LC-MS/MS analysis; format: ADME, cell-free; details: read-out: PPB (converted)
[22] = Plasma protein binding in human assessed as binding rate at 1000 ng/ml prewarmed for 30 mins by LC-MS/MS analysis; format: ADME, cell-free; details: read-out: PPB (converted)
[23] = Plasma protein binding in human assessed as binding rate at 1200 ng/ml prewarmed for 30 mins by LC-MS/MS analysis; format: ADME, cell-free; details: read-out: PPB (converted)
[24] = Plasma protein binding in rat assessed as binding rate at 250 ng/ml prewarmed for 30 mins by LC-MS/MS analysis; format: ADME, cell-free; details: read-out: PPB (converted)
[25] = Plasma protein binding in rat assessed as binding rate at 500 ng/ml prewarmed for 30 mins by LC-MS/MS analysis; format: ADME, cell-free; details: read-out: PPB (converted)
[26] = Plasma protein binding in rat assessed as binding rate at 1000 ng/ml prewarmed for 30 mins by LC-MS/MS analysis; format: ADME, cell-free; details: read-out: PPB (converted)
[27] = Plasma protein binding in rat assessed as binding rate at 1200 ng/ml prewarmed for 30 mins by LC-MS/MS analysis; format: ADME, cell-free; details: read-out: PPB (converted)
[28] = Metabolic stability in human liver microsomes at 1 uM measured upto 120 mins by LC-MS/MS analysis; format: ADME, Microsome; details: 2 h
[29] = Metabolic stability in Beagle dog liver microsomes at 1 uM measured upto 120 mins by LC-MS/MS analysis; format: ADME, Canis lupus familiaris, Microsome; details: 2 h
[30] = Metabolic stability in mouse liver microsomes assessed as half life at 1 uM measured upto 120 mins by LC-MS/MS analysis; format: ADME, Microsome
[31] = biological target: T1, Cytochrome P450 1A2 (Mus musculus, UniProt P00186); assay: Inhibition of mouse CYP1A2 at 0.01 to 50 uM measured after 30 mins by LC-MS/MS analysis; format: ADME; details: 0.5 h, dose 0.01-50 µM
T1 sequence (P00186 whole entry): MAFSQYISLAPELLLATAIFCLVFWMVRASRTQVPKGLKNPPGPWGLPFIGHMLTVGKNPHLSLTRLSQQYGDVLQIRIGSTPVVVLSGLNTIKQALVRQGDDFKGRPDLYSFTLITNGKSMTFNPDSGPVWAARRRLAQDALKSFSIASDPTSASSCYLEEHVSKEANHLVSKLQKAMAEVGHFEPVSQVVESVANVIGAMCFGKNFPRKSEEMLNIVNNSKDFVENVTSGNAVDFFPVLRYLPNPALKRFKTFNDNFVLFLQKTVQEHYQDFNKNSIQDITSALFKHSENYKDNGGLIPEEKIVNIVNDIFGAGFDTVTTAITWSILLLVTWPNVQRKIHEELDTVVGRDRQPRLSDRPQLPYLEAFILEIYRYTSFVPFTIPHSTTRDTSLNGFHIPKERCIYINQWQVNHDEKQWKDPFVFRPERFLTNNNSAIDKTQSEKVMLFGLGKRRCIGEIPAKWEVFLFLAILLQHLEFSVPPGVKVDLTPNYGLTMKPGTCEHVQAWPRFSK

[32] = Cmax in female Sprague-Dawley rat brain at 10 mg/kg, IG administered as single dose; format: ADME, organism-based; details: po
[33] = Cmax in male Sprague-Dawley rat brain at 10 mg/kg, IG administered as single dose; format: ADME, organism-based; details: po
[34] = Cmax in female Sprague-Dawley rat plasma at 10 mg/kg, IG administered as single dose; format: ADME, organism-based; details: po
[35] = Cmax in male Sprague-Dawley rat plasma at 10 mg/kg, IG administered as single dose; format: ADME, organism-based; details: po
[36] = Ratio of Cmax in female Sprague-Dawley rat brain to plasma at 10 mg/kg, IG administered as single dose; format: ADME, organism-based; details: brain and plasma, po, read-out: BPR
[37] = Ratio of Cmax in male Sprague-Dawley rat brain to plasma at 10 mg/kg, IG administered as single dose; format: ADME, organism-based; details: brain and plasma, po, read-out: BPR
[38] = Acute toxicity in Sprague-Dawley rat assessed as reduction in animal activity at 700 mg/kg, IG measured for 7 days; format: organism-based; details: in vivo, po, 168 h, time 7 day
[39] = Acute toxicity in Sprague-Dawley rat assessed as lethargy at 700 mg/kg, IG measured for 7 days; format: organism-based; details: in vivo, po, 168 h, time 7 day
[40] = Acute toxicity in Sprague-Dawley rat assessed as weight loss at 700 mg/kg, IG measured for 7 days; format: organism-based; details: in vivo, po, 168 h, time 7 day
[41] = Acute toxicity in IG dosed Sprague-Dawley rat assessed as minimum lethal dose measured for 7 days; format: organism-based; details: in vivo, po, 168 h, time 7 day
[42] = Subacute toxicity in Sprague-Dawley rat assessed as animal death at 50 to 140 mg/kg, IG administered once a day for 14 days; format: organism-based; details: in vivo, po, 336 h, dose 50-140 mg/kg, time 14 day
[43] = Subacute toxicity in Sprague-Dawley rat assessed as abnormal symptoms at 50 mg/kg, IG administered once a day for 14 days; format: organism-based; details: in vivo, po, 336 h, time 14 day
[44] = Subacute toxicity in Sprague-Dawley rat assessed as organ abnormalities at 50 mg/kg, IG administered once a day for 14 days; format: organism-based; details: in vivo, po, 336 h, time 14 day
[45] = Subacute toxicity in Sprague-Dawley rat assessed as wheezing at 140 mg/kg, IG administered once a day for 14 days; format: organism-based; details: in vivo, po, 336 h, time 14 day
[46] = Subacute toxicity in Sprague-Dawley rat assessed as lethargy at 140 mg/kg, IG administered once a day for 14 days; format: organism-based; details: in vivo, po, 336 h, time 14 day
[47] = Subacute toxicity in Sprague-Dawley rat assessed as ptosis at 140 mg/kg, IG administered once a day for 14 days; format: organism-based; details: in vivo, po, 336 h, time 14 day
[48] = Subacute toxicity in Sprague-Dawley rat assessed as increase in aspartate aminotransferase level in serum at 140 mg/kg, IG administered once a day for 14 days; format: organism-based; details: in vivo, po, 336 h, time 14 day
[49] = Subacute toxicity in Sprague-Dawley rat assessed as increase in spleen to brain ratio at 140 mg/kg, IG administered once a day for 14 days; format: organism-based; details: in vivo, po, 336 h, time 14 day
[50] = Subacute toxicity in Sprague-Dawley rat assessed as effect on ECG at 140 mg/kg, IG administered once a day for 14 days; format: organism-based; details: in vivo, po, 336 h, time 14 day
[51] = Subacute toxicity in Sprague-Dawley rat assessed as effect on white blood cell count at 140 mg/kg, IG administered once a day for 14 days; format: organism-based; details: in vivo, po, 336 h, time 14 day
[52] = Subacute toxicity in Sprague-Dawley rat assessed as effect on lymphocyte count at 140 mg/kg, IG administered once a day for 14 days; format: organism-based; details: in vivo, po, 336 h, time 14 day
[53] = Subacute toxicity in Sprague-Dawley rat assessed as effect on neutrophil count at 140 mg/kg, IG administered once a day for 14 days; format: organism-based; details: in vivo, po, 336 h, time 14 day

Chain of Voltage-gated inwardly rectifying potassium channel KCNH2 (Q12809 whole entry): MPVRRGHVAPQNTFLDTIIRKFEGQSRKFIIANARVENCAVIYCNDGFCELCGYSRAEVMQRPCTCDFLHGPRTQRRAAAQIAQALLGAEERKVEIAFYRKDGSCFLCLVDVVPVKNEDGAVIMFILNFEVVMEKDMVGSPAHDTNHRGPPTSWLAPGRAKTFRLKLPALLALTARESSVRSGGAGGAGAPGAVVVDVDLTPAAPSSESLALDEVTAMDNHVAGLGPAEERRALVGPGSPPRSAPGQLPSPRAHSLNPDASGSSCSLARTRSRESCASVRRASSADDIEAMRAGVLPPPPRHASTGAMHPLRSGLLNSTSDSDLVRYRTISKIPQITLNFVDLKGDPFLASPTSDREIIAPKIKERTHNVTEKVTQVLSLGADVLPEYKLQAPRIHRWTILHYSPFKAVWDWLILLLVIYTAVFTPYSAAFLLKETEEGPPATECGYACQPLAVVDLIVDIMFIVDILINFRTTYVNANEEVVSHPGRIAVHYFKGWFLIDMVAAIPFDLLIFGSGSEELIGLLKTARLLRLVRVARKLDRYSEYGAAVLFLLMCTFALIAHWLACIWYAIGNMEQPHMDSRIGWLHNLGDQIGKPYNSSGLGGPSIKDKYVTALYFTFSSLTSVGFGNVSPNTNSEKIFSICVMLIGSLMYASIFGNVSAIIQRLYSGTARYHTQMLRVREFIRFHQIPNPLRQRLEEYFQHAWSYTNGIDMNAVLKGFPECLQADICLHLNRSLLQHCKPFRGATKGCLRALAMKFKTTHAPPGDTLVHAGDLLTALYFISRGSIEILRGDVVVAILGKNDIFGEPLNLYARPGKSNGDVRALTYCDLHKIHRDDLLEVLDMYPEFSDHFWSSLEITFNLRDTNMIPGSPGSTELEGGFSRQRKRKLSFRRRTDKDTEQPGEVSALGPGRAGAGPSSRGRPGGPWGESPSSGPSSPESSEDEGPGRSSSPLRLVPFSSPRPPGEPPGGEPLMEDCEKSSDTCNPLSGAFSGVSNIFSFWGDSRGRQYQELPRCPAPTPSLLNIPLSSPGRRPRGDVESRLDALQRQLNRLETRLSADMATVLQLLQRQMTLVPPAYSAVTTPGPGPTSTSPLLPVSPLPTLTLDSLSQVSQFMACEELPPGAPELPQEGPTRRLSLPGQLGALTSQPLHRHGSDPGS
Chain of Muscarinic acetylcholine receptor M3 (P20309 whole entry): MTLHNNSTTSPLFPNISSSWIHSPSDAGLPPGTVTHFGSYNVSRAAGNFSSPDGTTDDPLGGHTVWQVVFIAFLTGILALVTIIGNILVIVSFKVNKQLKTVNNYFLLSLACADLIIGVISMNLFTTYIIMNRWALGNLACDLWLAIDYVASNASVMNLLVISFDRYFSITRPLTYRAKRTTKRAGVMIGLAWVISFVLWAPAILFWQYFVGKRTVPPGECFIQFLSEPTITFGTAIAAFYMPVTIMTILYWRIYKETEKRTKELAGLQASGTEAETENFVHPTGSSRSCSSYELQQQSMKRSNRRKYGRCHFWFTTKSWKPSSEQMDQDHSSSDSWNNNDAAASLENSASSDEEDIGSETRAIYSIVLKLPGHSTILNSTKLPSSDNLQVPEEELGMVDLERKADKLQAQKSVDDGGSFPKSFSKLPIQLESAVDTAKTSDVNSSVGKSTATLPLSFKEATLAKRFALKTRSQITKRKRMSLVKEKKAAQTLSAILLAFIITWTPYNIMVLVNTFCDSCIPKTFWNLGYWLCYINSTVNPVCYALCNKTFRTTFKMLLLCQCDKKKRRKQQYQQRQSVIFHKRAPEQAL

IC50 [1]: > 10 µM
SMILES: CC(C)(C(=O)O)c1ccc(CCCN2CCC(=C3c4ccc(Cl)cc4CCc4cccnc43)CC2)cc1
IC50 [2]: > 30 µM

IC50 [1]: > 10 µM
SMILES: OC[C@H](O)CN1CCC(=C2c3ccc(Cl)cc3CCc3cccnc32)CC1
IC50 [2]: 2.64 µM

IC50 [1]: > 10 µM
SMILES: O=C(O)c1ccc(CCCN2CCC(=C3c4ccc(Cl)cc4CCc4cccnc43)CC2)cc1

SMILES: CC(C)(C(=O)O)c1cccc(CCCN2CCC(=C3c4ccc(Cl)cc4CCc4cccnc43)CC2)c1
IC50 [1]: > 10 µM
IC50 [2]: 17.6 µM
half-life [3]: 0.653 h
AUC(0-t) at 24 h [4]: 1680 ng·h/mL
AUC(0-inf) [5]: 1820 ng·h/mL
Vd [6]: 1.77 L/kg
clearance [7]: 37 mL/min/kg
MRT inf [8]: 0.7 h
half-life [9]: 4.05 h
Tmax [10]: 0.38 h
Cmax [11]: 1720 ng/mL
AUC(0-t) at 24 h [12]: 6250 ng·h/mL
AUC(0-inf) [13]: 7210 ng·h/mL
Vd [14]: 21.26 L/kg
CL/F [15]: 59.4 mL/min/kg
MRT inf [16]: 6.01 h
bioavailability [17]: 59.5%
Papp A→B at 1 h, 5 µM [18]: 5.82 ×10⁻⁶ cm/s
Papp B→A at 1 h, 5 µM [19]: 6.06 ×10⁻⁶ cm/s
fraction unbound at 0.5 h, 250 ng/ml [20]: 0.347
fraction unbound at 0.5 h, 500 ng/ml [21]: 0.321
fraction unbound at 0.5 h, 1000 ng/ml [22]: 0.321
fraction unbound at 0.5 h, 1200 ng/ml [23]: 0.284
fraction unbound at 0.5 h, 250 ng/ml [24]: 0.346
fraction unbound at 0.5 h, 500 ng/ml [25]: 0.34
fraction unbound at 0.5 h, 1000 ng/ml [26]: 0.327
fraction unbound at 0.5 h, 1200 ng/ml [27]: 0.302
Stability [28]: Stable
Stability [29]: Stable
half-life at 1 µM [30]: 1.44 h
inhibition (INH) [31]: Not Active
Cmax [32]: 126 ng/g
Cmax [33]: 15.8 ng/g
Cmax [34]: 1930 ng/g
Cmax [35]: 239 ng/g
Kp [36]: 0.066
Kp [37]: 0.066
Activity [38]: Toxic
Activity [39]: Toxic
Activity [40]: Toxic
MLD [41]: 350 mg/kg
Activity [42]: Non-Toxic
Activity [43]: Non-Toxic
Activity [44]: Non-Toxic
Activity [45]: Toxic
Activity [46]: Toxic
Activity [47]: Toxic
Activity [48]: Toxic
Activity [49]: Toxic
Activity [50]: Non-Toxic
Activity [51]: Non-Toxic
Activity [52]: Non-Toxic
Activity [53]: Non-Toxic

Source: ChEMBL document CHEMBL5512623, “Discovery of the novel and potent histamine H1 receptor antagonists for treatment of allergic diseases” (Eur J Med Chem, 2024)
